{"source": "patent US20130005699A1", "about": "“METHODS AND PRODUCTS FOR TREATMENT OF DISEASES” (DMI ACQUISITION CORP., priority 2009, published 2013)", "key": {"[1]": {"system": "human retinal endothelial cells", "test": "Actin stress fiber formation (Example 11), retinal cells", "settings": "for F-actin staining pattern: danazol 1 μM alone"}, "[2]": {"system": "human retinal endothelial cells", "test": "Actin stress fiber formation, rhodamine-phalloidin staining, VEGF (Example 8)", "type": "cell-based", "settings": "for change of the VEGF stress fiber pattern: then VEGF 25 ng/ml 30 minutes; for F-actin staining pattern: no VEGF", "description": ". […] To counter-stain for nuclei, 100 μl of a 3 μM DAPI (4,6-diamidino-2-phenylindole, dilactate (Invitrogen)) solution was added to each well. After 5 minutes, the cells were washed two times with 100 μl PBS."}, "[3]": {"system": "Primary human umbilical vein endothelial cells (HUVECs)", "test": "HUVEC cell proliferation (Celltiter 96 AQueous One Solution assay)", "type": "cell-based", "description": "Primary human umbilical vein endothelial cells (HUVECs) and EGM-2 growth medium were obtained from Cambrex (Walkersville, Md.). The cells were passaged in medium supplemented with 2% fetal calf serum (FCS) in tissue culture flasks at 37° C. and 5% CO2. Subculturing was performed using trypsin when 60-80% confluence was obtained as specified by the supplier.\nCryopreserved ampoules of passage 2 HUVECs were thawed and plated in 96 well tissue culture plates at 5,000 cells/cm^2. […] In short, medium was aspirated from each well and the cells were washed with 200 μl […] (HBSS) from Cambrex warmed to 37° C. 100 μl diluted celltiter solution (15 μl stock+85 μl EGM-2 containing 0.1% FCS) were added to each well and incubated for an additional 4 hours. Optical density was determined by microplate reader using a 530 nm filter after blank subtraction and data presented as OD±standard deviation.\nAll data are presented as representative experiment done in triplicate. Differences between subsets were analyzed using student t-test in Microsoft Excel. P<0.05 was considered statistically significant."}, "Akt": {"system": "Akt", "test": "Akt phosphorylation (CASE ELISA kit for AKT S473) in retinal endothelial cells", "type": "cell-based, human", "settings": "2 hours", "description": "The cells were grown in a 25 cm^2 flask to near confluence in EGM-2 medium (Lonza, Walkersville, Md.) containing 2% fetal calf serum (Lonza). […] The plate was incubated at 37° C. with 5% CO2 for 24 hours. […] After this incubation, the cells were fixed immediately with 4% formaldehyde, refrigerated, and the extent of phosphorylation of Akt determined using the Akt Cellular Activation of Signaling ELISA Kit (CASE™ Kit for AKT 5473; SABiosciences, Frederick, Md.) following the manufacturer's protocols. The CASE™ Kit for AKT S473 quantifies the amount of activated (phosphorylated) Akt protein relative to total Akt protein in parallel assays using a conventional ELISA format with colorimetric detection. The Akt phosphorylation site is serine 473 and is recognized by one of the antibodies used in one of the two parallel assays to provide a measure of activated Akt protein. The other antibody used in the other parallel assay recognizes Akt to provide a measure of total Akt protein. Both primary antibodies are detected using a horseradish peroxidase-labeled secondary antibody. Addition of the manufacturer's Developing Solution for 10 minutes, followed by addition of the manufacturer's Stop Solution, produces the result which can be measured colorimetrically."}, "RhoA": {"system": "RhoA", "test": "Rho activation assay (GLISA) in retinal endothelial cells", "type": "cell-based, human", "description": "This experiment was performed using a commercially-available Rho activation assay (GLISA) purchased from Cytoskeleton, Denver, Colo., following the manufacturer's protocol. […] Test compounds diluted in HBSS were placed in the incubator to equilibrate before addition to the cells. Then, 150 μl of each test compound was added to the appropriate culture wells, and the plates were incubated in the incubator for an additional 15 minutes. Then, thrombin was added to appropriate wells. After 1 minute, the cells were washed one time with 1.5 ml phosphate buffered saline and were then lysed with 100 μl GLISA lysis buffer supplemented with protease inhibitors. The extracts were scraped, transferred to microcentrifuge tubes and transferred to ice to preserve the active form of RhoA. All extracts were then cleared of debris by spinning at 10,000 rpms for 2 minutes at 4° C. The supernatants were transferred to new tubes and placed back on ice. Aliquots of each extract were removed for the GLISA assay and for protein determinations. All protein concentrations were within 10%, and the extracts were used at the achieved concentrations (equates to 15 μg total protein per well). The GLISA assay was performed using the reagents supplied in the kit."}, "[4]": {"settings": "Homo sapiens, HUVEC, 24 h, read-out: percent inhibition"}, "[5]": {"settings": "Homo sapiens, HUVEC, 48 h, read-out: percent inhibition"}, "[6]": {"settings": "Homo sapiens, HUVEC, 72 h, read-out: inhibition"}, "[7]": {"settings": "passage 8 cells, 0.1 U/ml Thrombin + 1.0 μM compound"}, "[8]": {"settings": "passage 12 cells, 0.1 U/ml Thrombin + 1.0 μM compound"}}, "note": "Read-outs that look alike come from different tables or passages of the source.", "data": [{"compound": "C#C[C@]1(O)CC[C@H]2[C@@H]3CCC4=Cc5oncc5C[C@]4(C)[C@H]3CC[C@@]21C", "note": "[Danazol, 17α-pregna-2,4-dien-20-yno[2,3-d]-isoxazol-17β-ol]", "values": [{"measurement": "F-actin staining pattern", "setting": "[1]; 15 minutes", "result": "perinuclear staining"}, {"measurement": "F-actin staining pattern", "setting": "[1]; 3 hours", "result": "diffuse staining throughout the cells with ruffled edges on many of the cells"}, {"measurement": "F-actin staining pattern", "setting": "[1]; 24 hours", "result": "staining similar to untreated controls"}, {"measurement": "effect on S1P-induced cortical actin rings", "setting": "[1]; danazol 1 μM with S1P 1 μM", "result": "seemed to enhance the cortical rings at 3 hours"}, {"measurement": "effect on TNFα-induced stress fibers", "setting": "[1]; danazol 1 μM with TNFα 1 ng/ml, all times", "result": "decreased the stress fiber formation and/or the thickness of the fibers at all times"}, {"measurement": "change of the VEGF stress fiber pattern", "setting": "[2]; danazol 0.1 μM 30 minutes", "result": "made the stress fibers less pronounced and some diffuse staining appeared"}, {"measurement": "F-actin staining pattern", "setting": "[2]; danazol 0.1 μM", "result": "diffuse F-actin staining throughout the cytoplasm"}, {"measurement": "change of the VEGF stress fiber pattern", "setting": "[2]; danazol 1.0 μM 30 minutes", "result": "showed fewer thick stress fibers, but focal points were seen on contact surfaces"}, {"measurement": "F-actin staining pattern", "setting": "[2]; danazol 1.0 μM", "result": "the diffuse staining persisted, but stress fibers and focal points around the perimeter of most cells were visible"}, {"measurement": "change of the VEGF stress fiber pattern", "setting": "[2]; danazol 10.0 μM 30 minutes", "result": "showed strong stress fiber development with focal points"}, {"measurement": "F-actin staining pattern", "setting": "[2]; danazol 10.0 μM", "result": "stress fiber development and focal points were seen"}, {"measurement": "OD", "setting": "[3]; 0.1 μM danazol, 72 hours, nil wells 1.113±0.054", "result": "0.798±0.037"}, {"measurement": "OD", "setting": "[3]; 1 μM danazol, 48 hours, nil 0.629±0.095", "result": "0.378±0.037"}, {"measurement": "OD", "setting": "[3]; 1 μM danazol, 72 hours, nil wells 1.113±0.054", "result": "0.484±0.022"}, {"measurement": "OD", "setting": "[3]; 10 μM danazol, 24 hours, nil wells 0.414±0.06", "result": "0.288±0.037"}, {"measurement": "OD", "setting": "[3]; 10 μM danazol, 48 hours, nil 0.629±0.095", "result": "0.241±0.012"}, {"measurement": "OD", "setting": "[3]; 10 μM danazol, 72 hours, nil wells 1.113±0.054", "result": "0.229±0.016"}, {"measurement": "OD", "setting": "[3]; 100 μM danazol, 24 hours, nil wells 0.414±0.06", "result": "0.162±0.017"}, {"measurement": "OD", "setting": "[3]; 100 μM danazol, 48 hours, nil 0.629±0.095", "result": "0.19±0.033"}, {"measurement": "OD", "setting": "[3]; 100 μM danazol, 72 hours, nil wells 1.113±0.054", "result": "0.156±0.018"}, {"measurement": "effect on cell proliferation", "setting": "[3]; 100 μM danazol, all time points", "result": "complete arrest of cell proliferation"}, {"measurement": "inhibition at 10 µM", "setting": "[3]; [4]", "result": 30, "unit": "%"}, {"measurement": "inhibition at 100 µM", "setting": "[3]; [4]", "result": 65, "unit": "%"}, {"measurement": "inhibition at 1 µM", "setting": "[3]; [5]", "result": 40, "unit": "%"}, {"measurement": "inhibition at 10 µM", "setting": "[3]; [5]", "result": 61, "unit": "%"}, {"measurement": "inhibition at 100 µM", "setting": "[3]; [5]", "result": 70, "unit": "%"}, {"measurement": "inhibition at 0.1 µM", "setting": "[3]; Homo sapiens, HUVEC, 72 h", "result": 28, "unit": "%"}, {"measurement": "inhibition at 1 µM", "setting": "[3]; [6]", "result": 57, "unit": "%"}, {"measurement": "inhibition at 10 µM", "setting": "[3]; [6]", "result": 80, "unit": "%"}, {"measurement": "inhibition at 100 µM", "setting": "[3]; [6]", "result": 86, "unit": "%"}, {"measurement": "PERCENT INCREASE IN AKT PHOSPHORYLATION VERSUS CONTROL", "setting": "Akt; 0.5 μM danazol", "result": 73.8, "unit": "%"}, {"measurement": "PERCENT INCREASE IN AKT PHOSPHORYLATION VERSUS CONTROL", "setting": "Akt; 1.0 μM danazol", "result": 66.7, "unit": "%"}, {"measurement": "PERCENT INCREASE IN AKT PHOSPHORYLATION VERSUS CONTROL", "setting": "Akt; 2.0 μM danazol", "result": 101.6, "unit": "%"}, {"measurement": "PERCENT INCREASE IN AKT PHOSPHORYLATION VERSUS CONTROL", "setting": "Akt; 5.0 μM danazol", "result": 40.5, "unit": "%"}, {"measurement": "PERCENT INCREASE IN AKT PHOSPHORYLATION VERSUS CONTROL", "setting": "Akt; 10.0 μM danazol", "result": 115.3, "unit": "%"}, {"measurement": "PERCENT INCREASE IN AKT PHOSPHORYLATION VERSUS CONTROL", "setting": "Akt; 20.0 μM danazol", "result": 161.3, "unit": "%"}, {"measurement": "PERCENT INCREASE IN AKT PHOSPHORYLATION VERSUS CONTROL", "setting": "Akt; 50.0 μM danazol", "result": 98.6, "unit": "%"}, {"measurement": "Percent Inhibition vs. Untreated Control", "setting": "RhoA; passage 8 cells, 1.0 μM", "result": 73.89, "unit": "%"}, {"measurement": "Mean OD (active RhoA)", "setting": "RhoA; passage 8 cells, 1.0 μM, no thrombin, Untreated 0.102", "result": 0.027}, {"measurement": "Mean OD (active RhoA)", "setting": "RhoA; [7]", "result": 0.373}, {"measurement": "Percent Inhibition vs. Thrombin", "setting": "RhoA; [7]", "result": 41.02, "unit": "%"}, {"measurement": "Percent Inhibition vs. Untreated Control", "setting": "RhoA; passage 12 cells, 1.0 μM", "result": 6.82, "unit": "%"}, {"measurement": "Mean OD (active RhoA)", "setting": "RhoA; passage 12 cells, 1.0 μM, no thrombin, Untreated 0.455", "result": 0.424}, {"measurement": "Mean OD (active RhoA)", "setting": "RhoA; [8]", "result": 0.859}, {"measurement": "Percent Inhibition vs. Thrombin", "setting": "RhoA; [8]", "result": 27.57, "unit": "%"}]}]}
